Experimental findings from the NIST ThermoML archive (doi:10.1016/j.jct.2013.07.011) are described below.

SMILES strings stand for the structures. ± gives the expanded uncertainty stated by the source.

The conditions of the data set: 298.15 K; 101.33 kPa; Liquid; Vibrating tube method.
As a reminder, the mass density is mass per unit of volume. In the case of `CCCCCCCC` [octane], the mass density worked out at 698.6 ± 0.23 kg/m3.
For `C1CCCCCCC1` [cyclooctane] the value was 831.47 ± 0.3 kg/m3; for `CCCCn1cc[n+](C)c1.COS(=O)(=O)[O-]` [1-butyl-3-methylimidazolium methyl sulfate], 1212.59 ± 4 kg/m3; for `CCCC[n+]1ccn(C)c1.O=S(=O)([N-]S(=O)(=O)C(F)(F)F)C(F)(F)F`, 1436.35 ± 4 kg/m3.
For `CCCCCCCCC` [nonane] the value was 713.99 ± 0.32 kg/m3; for `Cc1ccccc1` [toluene], 862.17 ± 0.11 kg/m3.
For `c1ccccc1` [benzene] the value was 873.57 ± 0.11 kg/m3.
